# “And” between values parts separate entries of the source, which are not always exact repeats. Identical values can stand only once. “Also recorded” adds a separate entry of the source. Like-named read-outs stand apart in the source and are kept apart here.
# Columns and labels:
# [1] = dogs; ref Mattiuz et al., 2003; cited from earlier work
# ATX plasma levels = assay type: in vivo, rhesus monkey
# [2] = target: norepinephrine transporters (NET) (Macaca mulatta, UniProt Q9MYW8)
# [3] = humans, ref Logan et al., 2007, cited from earlier work
# [4] = test system: norepinephrine transporters (NET); conditions: rhesus monkeys, cited from earlier work
# [5] = test system: norepinephrine transporters (NET); conditions: humans, cited from earlier work
# [6] = humans; ref Sauer et al., 2003; cited from earlier work
# [7] = rats; ref Mattiuz et al., 2003; Kielbasa et al., 2009; cited from earlier work
# [8] = target: norepinephrine transporters (Homo sapiens, UniProt P23975); conditions: read-out: MRB dissociation constant Kd, in vitro; ref Melloni et al., 1984; cited from earlier work
# [9] = [11C]MRB arterial input function and plasma metabolite analysis; assay type: in vivo, rhesus monkey; conditions: for Fraction of unmetabolized [11C]MRB in plasma: n=10
# [10] = [11C]MRB plasma free fraction by ultrafiltration; assay type: in vitro ADME, rhesus monkey
# [11] = test system: norepinephrine transporters (NET); conditions: for Global VND/fP estimate (four NET-rich regions): Eq. 5, shared across regions, rSE 22%
# [12] = rhesus monkey, read-out: Percentage of occupancy of NET by ATX
# [13] = ATX low dose, Day 2, MA1, one row per monkey
# [14] = ATX medium dose, Day 1, MA1, one row per monkey
# [15] = Baseline, Day 1, MA1, one row per monkey
# [16] = after 40 mg of methylphenidate, n=9, ref Hannestad et al., 2010
# Chain of norepinephrine transporters (NET) (Macaca mulatta, UniProt Q9MYW8) (Q9MYW8 1-617): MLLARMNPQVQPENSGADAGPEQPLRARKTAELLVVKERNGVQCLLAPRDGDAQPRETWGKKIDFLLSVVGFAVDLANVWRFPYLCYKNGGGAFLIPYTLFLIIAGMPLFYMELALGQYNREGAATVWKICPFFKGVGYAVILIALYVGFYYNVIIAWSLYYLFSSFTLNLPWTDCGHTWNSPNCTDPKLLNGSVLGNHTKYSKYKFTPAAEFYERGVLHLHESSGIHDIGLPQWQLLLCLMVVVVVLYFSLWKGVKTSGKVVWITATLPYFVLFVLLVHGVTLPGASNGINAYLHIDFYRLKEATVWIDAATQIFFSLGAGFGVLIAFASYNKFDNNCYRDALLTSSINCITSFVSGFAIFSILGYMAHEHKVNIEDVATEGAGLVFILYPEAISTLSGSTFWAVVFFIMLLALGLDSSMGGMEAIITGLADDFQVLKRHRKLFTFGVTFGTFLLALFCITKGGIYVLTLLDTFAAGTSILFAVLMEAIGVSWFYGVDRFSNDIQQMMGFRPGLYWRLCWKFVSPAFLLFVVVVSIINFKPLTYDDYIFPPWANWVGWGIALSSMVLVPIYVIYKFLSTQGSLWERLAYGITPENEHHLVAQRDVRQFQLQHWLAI
# Chain of norepinephrine transporters (P23975 whole entry): as the sequence (Q9MYW8 1-617) above, with S15N, A19T, V246I, I410V, I427V, G452S, V606I counted along it
smiles,measurement,setting,value
"CNCC[C@@H](Oc1ccccc1C)c1ccccc1 [ATX, atomoxetine]",Plasma free fraction of ATX,[1],3%
same,Percent change per hour of ATX plasma level during the PET scan,"ATX plasma levels; mono-exponential fit of 0-, 60-, 120-min samples",−1±6 %/h
same,Slope of regression of ATX plasma level versus maintenance infusion rate,"ATX plasma levels; r^2=0.902, n=7, intercept set to zero",1.04 kg·h/L and 1.042 kg·h/L
same,IC50,"[2]; ATX IC50 using BPF, caudate as reference region, plasma concentration, rSE 16%",74.4 nM
same,Effect of ATX on [11C]MRB binding (VT/fP) in NET-rich regions,"[2]; all monkeys, increasing ATX infusion doses",decreased in a dosedependent manner; also recorded: inhibited in a dose-dependent manner
same,ATX occupancy estimate (Lassen plot),"[2]; monkey 1, high-dose scan",86±13%
same,ATX occupancy estimate (Lassen plot),"[2]; monkey 1, low-dose scan",31±10%
same,ATX occupancy estimate (Lassen plot),"[2]; monkey 1, medium-dose scan",56±7%
same,ATX occupancy estimate (Lassen plot),[2]; monkey 2 (only medium-dose scan acquired),65±18%
same,ATX occupancy estimate (Lassen plot),"[2]; monkey 3, high-dose scan",82±6%
same,ATX occupancy estimate (Lassen plot),"[2]; monkey 3, low-dose scan",39±14%
same,ATX occupancy estimate (Lassen plot),"[2]; monkey 3, medium-dose scan",63±7%
same,ED50,"[2]; rhesus monkey, read-out: ATX ED50, dose",0.13 mg/kg
same,receptor occupancy at 0.012 µg/mL,[2]; [12],27%
same,receptor occupancy at 0.132 µg/mL,[2]; [12],80%
same,Plasma levels of ATX,[3]; 25 mg oral ATX,116 ng/mL
same,Plasma levels of ATX,[3]; 50 mg oral ATX,206 ng/mL
same,Plasma levels of ATX,[3]; 100 mg oral ATX,421 ng/mL
same,ATX IC50 in occupancy study using [18F]F-MeNER-D2,"[4]; plasma, ref Takano et al., 2009a",0.016 µg/mL
same,Reduction of [11C]MRB average VT in the occipital cortex,"[5]; after 100 mg of ATX, ref Logan et al., 2007",10%
same,Plasma free fraction of ATX,[6],1.3%
same,Plasma free fraction of ATX,[7],11–13%
COc1ccccc1OC(c1ccccc1)C1CNCCO1 (centres unmarked) [MRB],Kd,[8],2.5 nM
"[11CH3]Oc1ccccc1O[C@@H](c1ccccc1)[C@@H]1CNCCO1 [[^11C]MRB, (S,S)-[^11C]methylreboxetine]",Fraction of unmetabolized [11C]MRB in plasma,[9]; 20 min post-injection,42±8%
same,Fraction of unmetabolized [11C]MRB in plasma,[9]; 90 min post-injection,25±4%
same,Whole blood to plasma radioactivity concentration ratio,[9]; throughout the scans,0.94±0.13
same,Change of plasma free fraction fP from first to second scan of the day,[10],+17%±10
same,Day-to-day variability of plasma free fraction fP,[10]; monkey #1,−16%
same,Day-to-day variability of plasma free fraction fP,[10]; monkey #3,−68%
same,"Distribution Volume VT, Caudate",[11]; [13],6.2 mL/cm^3 and 2.1 mL/cm^3
same,"Distribution Volume VT, Midbrain",[11]; [13],9.0 mL/cm^3 and 3.0 mL/cm^3
same,"Distribution Volume VT, Putamen",[11]; [13],2.4 mL/cm^3 and 6.8 mL/cm^3
same,"Distribution Volume VT, Anterior Cingulate",[11]; [14],11.0 mL/cm^3 and 8.7 mL/cm^3 and 8.3 mL/cm^3
same,"Distribution Volume VT, Brainstem",[11]; [14],11.5 mL/cm^3 and 7.3 mL/cm^3 and 8.2 mL/cm^3
same,"Distribution Volume VT, Caudate",[11]; [14],8.7 mL/cm^3 and 6.5 mL/cm^3 and 6.3 mL/cm^3
same,"Distribution Volume VT, Midbrain",[11]; [14],10.1 mL/cm^3 and 7.5 mL/cm^3 and 7.8 mL/cm^3
same,"Distribution Volume VT, Occipital",[11]; [14],8.2 mL/cm^3 and 6.4 mL/cm^3 and 5.6 mL/cm^3
same,"Distribution Volume VT, Putamen",[11]; [14],7.2 mL/cm^3 and 9.9 mL/cm^3 and 8.7 mL/cm^3
same,"Distribution Volume VT, Thalamus",[11]; [14],11.6 mL/cm^3 and 8.2 mL/cm^3 and 8.5 mL/cm^3
same,"Distribution Volume VT, Anterior Cingulate",[11]; [15],13.3 mL/cm^3 and 10.1 mL/cm^3 and 10.9 mL/cm^3
same,"Distribution Volume VT, Brainstem",[11]; [15],16.3 mL/cm^3 and 10.2 mL/cm^3 and 11.1 mL/cm^3
same,"Distribution Volume VT, Midbrain",[11]; [15],13.3 mL/cm^3 and 10.5 mL/cm^3 and 9.4 mL/cm^3
same,"Distribution Volume VT, Occipital",[11]; [15],8.4 mL/cm^3 and 6.6 mL/cm^3 and 6.4 mL/cm^3
same,"Distribution Volume VT, Putamen",[11]; [15],6.3 mL/cm^3 and 8.9 mL/cm^3 and 6.6 mL/cm^3
same,"Distribution Volume VT, Thalamus",[11]; [15],15.5 mL/cm^3 and 10.7 mL/cm^3 and 12.7 mL/cm^3
same,"Distribution Volume VT, Caudate","[11]; Baseline, Day 1, MA1 t*=30 min, one row per monkey #1-#3",7.7 mL/cm^3 and 6.5 mL/cm^3 and 5.9 mL/cm^3
same,VND/fP in the putamen,[11]; Bmax/Kd set to zero,30 mL/cm^3
same,Global VND/fP estimate (four NET-rich regions),[11],19±4 mL/cm^3
same,Global VND/fP estimate (four NET-rich regions),[11]; listed as [^11C] MRB,19 mL/cm^3
same,VND/fP estimate (four high binding regions plus occipital cortex),"[11]; Eq. 5, rSE 15%",19± 3 mL/cm^3
same,Binding potential BPND in the thalamus,"[11]; baseline VT/fP divided by global VND/fP, minus one, n=3",1.8±0.3
same,Expected value of BPND in the thalamus,"[11]; computed from in vitro Kd 2.5 nM, NET density 23–72 nM and fND",0.46–1.44
same,Tissue free fraction fND,"[11]; fND=fP/VND, from VND/fP 19 mL/cm^3",~5%
same,"VT/fP after blockade by the highest dose of ATX, anterior cingulate cortex","[11]; n=2, unit not given",24±3
same,"VT/fP after blockade by the highest dose of ATX, brainstem","[11]; n=2, unit not given",24±1
same,"VT/fP after blockade by the highest dose of ATX, midbrain","[11]; n=2, unit not given",23±1
same,"VT/fP after blockade by the highest dose of ATX, thalamus","[11]; n=2, unit not given",26±3
same,"Normalized distribution volume VT/fP at baseline, caudate nucleus",[11]; n=3,28±3 mL/cm^3
same,"Normalized distribution volume VT/fP at baseline, occipital cortex",[11]; n=3,30±2 mL/cm^3
same,"Normalized distribution volume VT/fP at baseline, putamen",[11]; n=3,30±2 mL/cm^3
same,"Specific binding in the NET-poor regions (caudate, putamen and occipital)",[11]; or a higher non-specific binding,≤ 30%
[2H]C([2H])([18F])Oc1ccccc1O[C@@H](c1ccccc1)[C@H]1CNCCO1 [[^18F]MeNER-D2],BPND in the thalamus,"[4]; ref Seneca et al., 2006",0.26±0.06
same,BPND in the thalamus,"[4]; ref Takano et al., 2009a,b",0.7±0.1
COC(=O)C(c1ccccc1)C1CCCCN1 (centres unmarked) [methylphenidate],Reduction of [11C]MRB VT in the occipital cortex,[5]; [16],9±17%
same,Reduction of [11C]MRB VT/fP in the occipital cortex,[5]; [16],5±15%

# — article PMC3710586 (NeuroImage, 2010)
